# According to patent US12291518B2, “Thyroid hormone receptor agonists and use thereof” (Eccogene Inc., priority 2020, dated 2025):
# What was measured:
# THR beta-LBD = biological target: T1, THR beta-LBD (Homo sapiens, UniProt P10828); experiment: THR-β Coactivator Peptide Recruitment Assay (LanthaScreen TR-FRET); type: biochemical; details: TR-FRET coactivator recruitment, THR beta-LBD 0.5 nM; for EC50: read-out: THRβ EC50
# T1 construct: THR beta-LBD (the final concentration is 0.5 nM) was added to the 384-well assay plate; purchased Invitrogen PV4686
# T1 sequence (P10828 217-461 limits assumed): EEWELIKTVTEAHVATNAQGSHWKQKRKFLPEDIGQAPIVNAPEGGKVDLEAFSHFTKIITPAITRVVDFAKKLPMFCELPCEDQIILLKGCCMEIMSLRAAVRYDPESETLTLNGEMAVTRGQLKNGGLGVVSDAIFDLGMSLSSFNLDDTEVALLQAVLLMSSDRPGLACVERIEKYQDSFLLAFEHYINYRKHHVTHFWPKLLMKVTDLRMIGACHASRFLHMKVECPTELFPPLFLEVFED
# Description: (§1) A time-resolved FRET (TR-FRET) assay was used to test representative compounds of the application.
# (§2) THR-β Coactivator Peptide Recruitment Assay were conducted by using Invitrogen's LanthaScreen™ TR-FRET Thyroid Receptor beta Assay Kit (Catalog no. PV4686). Binding of an agonist to the nuclear receptor causes a subsequent binding of a coactivator peptide, resulting in fluorescence energy transfer from the labelled nuclear receptor to the proximal coactivator peptide, which reflects the binding affinity of the agonist and the nuclear receptor. The assay was conducted by following the manufacturer's instructions. Briefly, THR beta-LBD (the final concentration is 0.5 nM) was added to the 384-well assay plate containing test compounds, followed by addition of Fluorescein-SRC2-2 coactivator peptide and terbium (Tb)-labeled anti-GST antibody. The final concentration of THR beta-LBD, Fluorescein-SRC2-2 coactivator peptide and terbium (Tb)-labeled anti-GST antibody is 0.5 nM, 0.1 nM and 2 nM, respectively. After a gentle mix and incubation at room temperature for 2 h, the signal was read on the EnVision Multilabel Plate Reader at wavelengths of 520 nm and 495 nm. TR-FRET ratio was calculated by dividing the emission signal at 520 nm and the emission signal at 495 nm, and then was plotted against a sigmoidal dose response curve (four parameters, GraphPad™ Prism 8) to determine the EC50 value.
# THR alpha-LBD = biological target: T2, THR alpha-LBD (Homo sapiens, UniProt P10827); experiment: THR-α Coactivator Peptide Recruitment Assay (LanthaScreen TR-FRET); type: biochemical; details: TR-FRET coactivator recruitment, THR alpha-LBD 0.25 nM; for EC50: read-out: THRα EC50
# T2 construct: except that THR alpha-LBD of a final concentration 0.25 nM was used; purchased Invitrogen PV4687
# Description: as §1, §2
# THR-α Coactivator Peptide Recruitment Assay were conducted by using Invitrogen's LanthaScreen™ TR-FRET Thyroid Receptor alpha Assay Kit (Catalog no. PV4687), following the same method described above except that THR alpha-LBD of a final concentration 0.25 nM was used.
# T2 sequence (P10827 163-410 isoform P10827-2 limits assumed, other chains not shown): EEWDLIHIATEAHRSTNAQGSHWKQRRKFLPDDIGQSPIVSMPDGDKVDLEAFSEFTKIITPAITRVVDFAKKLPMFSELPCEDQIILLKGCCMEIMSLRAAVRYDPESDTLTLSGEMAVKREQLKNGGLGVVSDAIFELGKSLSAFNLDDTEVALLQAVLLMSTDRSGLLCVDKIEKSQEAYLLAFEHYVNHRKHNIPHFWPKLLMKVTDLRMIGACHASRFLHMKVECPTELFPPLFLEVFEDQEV
Compound,THRβ Emax (THR beta-LBD),EC50 (THR beta-LBD),THRα Emax (THR alpha-LBD),EC50 (THR alpha-LBD)
"O=c1[nH]c(=O)n(-c2cc(Cl)c(Oc3ccc(O)c(S(=O)(=O)N[C@@H]4CC[C@@H](O)C4)c3)c(Cl)c2)nc1C(F)F (racemic) [Compound 75, 5-(2,6-dichloro-4-(6-(difluoromethyl)-3,5-dioxo-4,5-dihydro-1,2,4-triazin-2(3H)-yl)phenoxy)-2-hydroxy-N-((1R,3R)-3-hydroxycyclopentyl)benzenesulfonamide]",C (<75),2 to 20 nM,B (40~85),200 to 1000 nM
"O=C(c1cc(Oc2c(Cl)cc(-n3nc(Cl)c(=O)[nH]c3=O)cc2Cl)ccc1O)N1C[C@H]2CC[C@@H]1C2 (single isomer, unassigned) [Compound 7]",A (90~110),< 2 nM,A (85~110),2 to 200 nM
"O=C(c1cc(Oc2c(Cl)cc(-n3nc(Cl)c(=O)[nH]c3=O)cc2Cl)ccc1O)N1C[C@@H]2CC[C@H]1C2 (single isomer, unassigned) [Compound 8]",B (75~90),< 2 nM,B (40~85),2 to 200 nM
"CN1C[C@@H](NS(=O)(=O)c2cc(Oc3c(Cl)cc(-n4nc(C(F)F)c(=O)[nH]c4=O)cc3Cl)ccc2O)CC1=O (single isomer, unassigned) [Compound 34]",C (<75),20 to 100 nM,B (40~85),200 to 1000 nM
"CN1C[C@H](NS(=O)(=O)c2cc(Oc3c(Cl)cc(-n4nc(C(F)F)c(=O)[nH]c4=O)cc3Cl)ccc2O)CC1=O (single isomer, unassigned) [Compound 35]",C (<75),20 to 100 nM,B (40~85),200 to 1000 nM
"O=c1[nH]c(=O)n(-c2cc(Cl)c(Oc3cc(S(=O)(=O)N[C@@H]4CC[C@@H]4O)c(O)cn3)c(Cl)c2)nc1C(F)F (stereo in doubt) [Compound 170, 2-[2,6-dichloro-4-[6-(difluoromethyl)-3,5-dioxo-1,2,4-triazin-2-yl]phenoxy]-5-hydroxy-N-[(1R,2S)-2-hydroxycyclobutyl]pyridine-4-sulfonamide]",C (<75),20 to 100 nM,B (40~85),200 to 1000 nM
"O=c1[nH]c(=O)n(-c2cc(Cl)c(Oc3cc(S(=O)(=O)N[C@@H]4CC[C@H]4O)c(O)cn3)c(Cl)c2)nc1C(F)F (stereo in doubt) [Compound 171, 2-[2,6-dichloro-4-[6-(difluoromethyl)-3,5-dioxo-1,2,4-triazin-2-yl]phenoxy]-5-hydroxy-N-[(1R,2R)-2-hydroxycyclobutyl]pyridine-4-sulfonamide]",C (<75),20 to 100 nM,C (<40),200 to 1000 nM
"O=C(NC1CCC1)c1cc(Oc2c(Cl)cc(-n3nc(C(F)F)c(=O)[nH]c3=O)cc2Cl)ccc1O [Compound 1, N-cyclobutyl-5-[2,6-dichloro-4-[6-(difluoromethyl)-3,5-dioxo-1,2,4-triazin-2-yl]phenoxy]-2-hydroxy-benzamide]",A (90~110),2 to 20 nM,B (40~85),2 to 200 nM
"O=C(N[C@H]1C[C@H](O)C1)c1cc(Oc2c(Cl)cc(-n3nc(C(F)F)c(=O)[nH]c3=O)cc2Cl)ccc1O [Compound 2, 5-(2,6-dichloro-4-(6-(difluoromethyl)-3,5-dioxo-4,5-dihydro-1,2,4-triazin-2(3H)-yl)phenoxy)-2-hydroxy-N-((1r,3r)-3-hydroxycyclobutyl)benzamide]",B (75~90),2 to 20 nM,B (40~85),200 to 1000 nM
"O=C(NC1CC(F)(F)C1)c1cc(Oc2c(Cl)cc(-n3nc(C(F)(F)F)c(=O)[nH]c3=O)cc2Cl)ccc1O [Compound 3, 5-[2,6-dichloro-4-[3,5-dioxo-6-(trifluoromethyl)-1,2,4-triazin-2-yl]phenoxy]-N-(3,3-difluorocyclobutyl)-2-hydroxy-benzamide]",A (90~110),20 to 100 nM,B (40~85),> 1000 nM
"CC(C)(C)NC(=O)c1cc(Oc2c(Cl)cc(-n3nc(C(F)(F)F)c(=O)[nH]c3=O)cc2Cl)ccc1O [Compound 4, N-(tert-butyl)-5-(2,6-dichloro-4-(3,5-dioxo-6-(trifluoromethyl)-4,5-dihydro-1,2,4-triazin-2(3H)-yl)phenoxy)-2-hydroxybenzamide]",A (90~110),20 to 100 nM,B (40~85),200 to 1000 nM
"O=C(NC1CCC1)c1cc(Oc2c(Cl)cc(-n3nc(C(F)(F)F)c(=O)[nH]c3=O)cc2Cl)ccc1O [Compound 5, N-cyclobutyl-5-(2,6-dichloro-4-(3,5-dioxo-6-(trifluoromethyl)-4,5-dihydro-1,2,4-triazin-2(3H)-yl)phenoxy)-2-hydroxybenzamide]",A (90~110),20 to 100 nM,B (40~85),> 1000 nM
"O=C(NC12CC3(F)CC(F)(CC(F)(C3)C1)C2)c1cc(Oc2c(Cl)cc(-n3nc(C(F)F)c(=O)[nH]c3=O)cc2Cl)ccc1O [Compound 6, 5-(2,6-dichloro-4-(6-(difluoromethyl)-3,5-dioxo-4,5-dihydro-1,2,4-triazin-2 (3H)-yl)phenoxy)-2-hydroxy-N-(3,5,7-trifluoroadamantan-1-yl) benzamide]",B (75~90),20 to 100 nM,B (40~85),> 1000 nM
"O=c1[nH]c(=O)n(-c2cc(Cl)c(S(=O)(=O)c3ccc(O)c(C4CCC4)c3)c(Cl)c2)nc1C(F)(F)F [Compound 9, 2-[3,5-dichloro-4-(3-cyclobutyl-4-hydroxy-phenyl)sulfonyl-phenyl]-6-(trifluoromethyl)-1,2,4-triazine-3,5-dione]",A (90~110),> 100 nM,B (40~85),200 to 1000 nM
"O=C(NC1CCC1)c1cc(Oc2c(Cl)cc(-n3nc(C(F)(F)F)c(=O)[nH]c3=O)cc2Cl)c(F)cc1O [Compound 10, N-cyclobutyl-5-[2,6-dichloro-4-[3,5-dioxo-6-(trifluoromethyl)-1,2,4-triazin-2-yl]phenoxy]-4-fluoro-2-hydroxy-benzamide]",B (75~90),> 100 nM,C (<40),> 1000 nM
"O=C(NC1CCC1)c1cc(Oc2c(Cl)cc(-n3nc(C(F)F)c(=O)[nH]c3=O)cc2Cl)c(F)cc1O [Compound 11, N-cyclobutyl-5-[2,6-dichloro-4-[6-(difluoromethyl)-3,5-dioxo-1,2,4-triazin-2-yl]phenoxy]-4-fluoro-2-hydroxy-benzamide]",A (90~110),> 100 nM,B (40~85),> 1000 nM
"O=c1[nH]c(=O)n(-c2cc(Cl)c(Oc3ccc(O)c(S(=O)(=O)NC4CCC4)c3)c(Cl)c2)nc1C(F)F [Compound 12, N-cyclobutyl-5-[2,6-dichloro-4-[6-(difluoromethyl)-3,5-dioxo-1,2,4-triazin-2-yl]phenoxy]-2-hydroxy-benzenesulfonamide]",A (90~110),< 2 nM,A (85~110),< 2 nM
"CNS(=O)(=O)c1cc(Oc2c(Cl)cc(-n3nc(C(F)F)c(=O)[nH]c3=O)cc2Cl)ccc1O [Compound 13, 5-(2,6-dichloro-4-(6-(difluoromethyl)-3,5-dioxo-4,5-dihydro-1,2,4-triazin-2(3H)-yl)phenoxy)-2-hydroxy-N-methylbenzenesulfonamide]",A (90~110),< 2 nM,A (85~110),< 2 nM
"O=c1[nH]c(=O)n(-c2cc(Cl)c(Oc3ccc(O)c(S(=O)(=O)NC4CC4)c3)c(Cl)c2)nc1C(F)F [Compound 14, N-cyclopropyl-5-(2,6-dichloro-4-(6-(difluoromethyl)-3,5-dioxo-4,5-dihydro-1,2,4-triazin-2(3H)-yl)phenoxy)-2-hydroxybenzenesulfonamide]",A (90~110),< 2 nM,A (85~110),< 2 nM
"O=c1[nH]c(=O)n(-c2cc(Cl)c(Oc3ccc(O)c([S@TB3](=O)(=O)N4CCOCC4)c3)c(Cl)c2)nc1C(F)F [Compound 15, 2-(3,5-dichloro-4-(4-hydroxy-3-(morpholinosulfonyl)phenoxy)phenyl)-6-(difluoromethyl)-1,2,4-triazine-3,5(2H,4H)-dione]",B (75~90),< 2 nM,B (40~85),< 2 nM
